# Experimental data published in US11225486B2, “Tertiary alcohols as PI3K-γ inhibitors” (Incyte Corporation, priority 2017, dated 2022).
# Where a name gives a salt, the structure may show the parent alone. Read-outs that look alike come from different tables or passages of the source.
# Tests used:
# [1] = molecular target: PI3Kγ (p110γ) Recombinant Human Protein (Homo sapiens (Human), UniProt P48736); assay: PI3K-γ scintillation proximity assay; format: biochemical
# Description: Example B. PI3K-γ Scintillation Proximity Assay
# [γ-^33P]ATP (10 mCi/mL) and Wheat Germ Agglutinin (WGA) YSi SPA Scintillation Beads was purchased from Perkin-Elmer (Waltham, Mass.). Lipid kinase substrate, D-myo-Phosphatidylinositol 4,5-bisphosphate (PtdIns(4,5)P2)D (+)-sn-1,2-di-O-octanoylglyceryl, 3-O-phospho linked (PIP2), CAS 204858-53-7, was purchased from Echelon Biosciences (Salt Lake City, Utah). PI3Kγ (p110γ) Recombinant Human Protein was purchased from Life technology (Grand Island, N.Y.). ATP, MgCl2, DTT, EDTA, MOPS and CHAPS were purchased from Sigma-Aldrich (St. Louis, Mo.).
# (§1) The kinase reaction was conducted in polystyrene 384-well Greiner Bio-one white plate from Thermo Fisher Scientific in a final volume of 25 μL. Inhibitors were first diluted serially in DMSO and added to the plate wells before the addition of other reaction components. The final concentration of DMSO in the assay was 2%. The PI3Kγ assay was carried out at room temperature in 20 mM MOPS, pH 6.7, 10 mM MgCl2, 5 mM DTT and CHAPS 0.03%. Reactions were initiated by the addition of ATP, the final reaction mixture consisted of 20 μM PIP2, 2 μM ATP, 0.5 μCi [γ-^33P] ATP, 13 nM PI3Kγ. Reactions were incubated for 120 min and terminated by the addition of 40 μL SPA beads suspended in quench buffer: 163 mM potassium phosphate pH 7.8, 20% glycerol, 25 mM EDTA. The final concentration of SPA beads is 1.0 mg/mL. After the plate sealing, plates were shaken overnight at room temperature and centrifuged at 1500 rpm for 10 min, the radioactivity of the product was determined by scintillation counting on Topcount (Perkin-Elmer). IC50 determination was performed by fitting the curve of percent of the solvent control activity versus the log of the inhibitor concentration using the GraphPad Prism 6.0 software.
# [2] = molecular target: PI3Kδ (p110δ/p85α) Recombinant Human Protein (Homo sapiens (Human), UniProt O00329); assay: PI3Kδ scintillation proximity assay; format: biochemical; settings: read-out: P13Kδ IC50
# Method: PI3Kδ Scintillation Proximity Assay
# [γ-^33P]ATP (10 mCi/mL) and Wheat Germ Agglutinin (WGA) YSi SPA Scintillation Beads was purchased from Perkin-Elmer (Waltham, Mass.). […] PI3Kδ (p110δ/p85α) Recombinant Human Protein was purchased from Eurofins (St Charles, Mo.). ATP, MgCl2, DTT, EDTA, MOPS and CHAPS were purchased from SigmaAldrich (St. Louis, Mo.).
# as §1, with “PI3Kδ” for “PI3Kγ”, “ATP, 13 nM PI3Kγ. Reactions were incubated for 120 min and terminated by the addition of 40 μL SPA beads suspended in quench buffer: 163 mM potassium phosphate pH 7.8, 20% glycerol, 25 mM EDTA.” left out, “(PerkinElmer).” for “(Perkin-Elmer).”
# [3] = tested on: Phosphorylated Ribosomal Protein S6 (RPS6) in THP-1 cells; assay: THP-1 RPS6 ELISA assay; format: cell-based; settings: Homo sapiens, THP-1, THP-1 cells, 10 nM MCP-1 stimulation, phospho-RPS6 ELISA; read-out: PI3Kγ_THP1_RPS6_ELISA IC50
# Method: Example A. THP-1 RPS6 ELISA Assay
# To measure the Phosphorylated Ribosomal Protein S6 (RPS6) in cell lysates, THP-1 cells (Human Acute Monocytic Leukemia) are purchased from ATCC (Manassas, Va.) and maintained in RPMI with 10% FBS (Gibco/Life Technologies, Carlsbad, Calif.). For the assay, THP-1 cells are serum starved overnight in RPMI, then plated in RPMI (2×10^5 cells/well in 90 μL) into 96-well flat-bottom tissue culture treated plates (Corning, Corning, N.Y.), in the presence or absence of a concentration range of test compounds. Covered plates are incubated for 2 hours at 37° C., 5% CO2 then treated with or without 10 nM MCP-1(MYBioSource, San Diego, Calif.) for 15 minutes at 37° C., 5% CO2. Plates are centrifuged at 1600 RPM and supernatants are removed. Cells are lysed in Lysis Buffer (Cell Signaling, Danvers, Mass.) with Protease Inhibitor (Calbiochem/EMD, Germany), PMSF (Sigma, St Louis Mo.), HALTS (Thermo Fisher, Rockford, Ill.) for 30 min on wet ice. Cell lysates are frozen at −80° C. before testing. The lysates are tested in the Human/Mouse/Rat Phospho-RPS6 ELISA (R&D Systems, Inc. Minn, Minn.). The plate is measured using a microplate reader (SpectraMax M5—Molecular Devices, LLC Sunnyvale, Calif.) set to 450 nm with a wavelength correction of 540. […]
# [4] = 20 μM PIP2, 2 μM ATP, 13 nM PI3Kγ
# [5] = 20 μM PIP2, 2 μM ATP, 3.4 nM PI3Kδ
# Sequence of PI3Kγ (p110γ) Recombinant Human Protein (P48736 whole entry): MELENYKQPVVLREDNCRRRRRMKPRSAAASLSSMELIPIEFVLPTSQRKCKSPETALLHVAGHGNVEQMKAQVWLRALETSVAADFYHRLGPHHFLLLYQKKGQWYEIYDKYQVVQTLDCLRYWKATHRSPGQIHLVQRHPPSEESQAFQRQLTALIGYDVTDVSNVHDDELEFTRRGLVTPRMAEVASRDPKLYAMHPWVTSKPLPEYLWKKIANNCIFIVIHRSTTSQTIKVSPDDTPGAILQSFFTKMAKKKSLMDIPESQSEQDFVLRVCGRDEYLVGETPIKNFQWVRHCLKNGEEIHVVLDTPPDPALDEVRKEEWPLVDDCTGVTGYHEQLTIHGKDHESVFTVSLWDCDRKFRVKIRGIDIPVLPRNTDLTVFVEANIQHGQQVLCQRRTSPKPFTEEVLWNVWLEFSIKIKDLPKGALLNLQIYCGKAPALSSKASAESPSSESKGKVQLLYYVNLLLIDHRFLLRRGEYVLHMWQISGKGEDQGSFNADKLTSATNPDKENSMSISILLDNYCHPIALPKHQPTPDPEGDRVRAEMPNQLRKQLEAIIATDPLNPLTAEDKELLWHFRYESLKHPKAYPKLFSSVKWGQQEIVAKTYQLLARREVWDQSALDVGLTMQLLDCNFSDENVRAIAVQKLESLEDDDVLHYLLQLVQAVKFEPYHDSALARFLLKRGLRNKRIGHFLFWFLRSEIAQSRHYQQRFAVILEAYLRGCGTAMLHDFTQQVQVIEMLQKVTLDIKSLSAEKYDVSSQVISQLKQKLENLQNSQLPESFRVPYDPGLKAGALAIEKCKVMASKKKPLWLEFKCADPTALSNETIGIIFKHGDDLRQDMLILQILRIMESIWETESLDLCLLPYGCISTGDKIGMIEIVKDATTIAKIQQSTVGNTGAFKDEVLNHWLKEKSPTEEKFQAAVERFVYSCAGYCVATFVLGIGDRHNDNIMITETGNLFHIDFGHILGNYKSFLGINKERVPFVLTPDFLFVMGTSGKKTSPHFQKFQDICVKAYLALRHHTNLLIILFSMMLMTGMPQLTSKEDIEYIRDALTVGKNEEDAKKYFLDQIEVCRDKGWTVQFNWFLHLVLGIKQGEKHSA
# Sequence of PI3Kδ (p110δ/p85α) Recombinant Human Protein (O00329 whole entry): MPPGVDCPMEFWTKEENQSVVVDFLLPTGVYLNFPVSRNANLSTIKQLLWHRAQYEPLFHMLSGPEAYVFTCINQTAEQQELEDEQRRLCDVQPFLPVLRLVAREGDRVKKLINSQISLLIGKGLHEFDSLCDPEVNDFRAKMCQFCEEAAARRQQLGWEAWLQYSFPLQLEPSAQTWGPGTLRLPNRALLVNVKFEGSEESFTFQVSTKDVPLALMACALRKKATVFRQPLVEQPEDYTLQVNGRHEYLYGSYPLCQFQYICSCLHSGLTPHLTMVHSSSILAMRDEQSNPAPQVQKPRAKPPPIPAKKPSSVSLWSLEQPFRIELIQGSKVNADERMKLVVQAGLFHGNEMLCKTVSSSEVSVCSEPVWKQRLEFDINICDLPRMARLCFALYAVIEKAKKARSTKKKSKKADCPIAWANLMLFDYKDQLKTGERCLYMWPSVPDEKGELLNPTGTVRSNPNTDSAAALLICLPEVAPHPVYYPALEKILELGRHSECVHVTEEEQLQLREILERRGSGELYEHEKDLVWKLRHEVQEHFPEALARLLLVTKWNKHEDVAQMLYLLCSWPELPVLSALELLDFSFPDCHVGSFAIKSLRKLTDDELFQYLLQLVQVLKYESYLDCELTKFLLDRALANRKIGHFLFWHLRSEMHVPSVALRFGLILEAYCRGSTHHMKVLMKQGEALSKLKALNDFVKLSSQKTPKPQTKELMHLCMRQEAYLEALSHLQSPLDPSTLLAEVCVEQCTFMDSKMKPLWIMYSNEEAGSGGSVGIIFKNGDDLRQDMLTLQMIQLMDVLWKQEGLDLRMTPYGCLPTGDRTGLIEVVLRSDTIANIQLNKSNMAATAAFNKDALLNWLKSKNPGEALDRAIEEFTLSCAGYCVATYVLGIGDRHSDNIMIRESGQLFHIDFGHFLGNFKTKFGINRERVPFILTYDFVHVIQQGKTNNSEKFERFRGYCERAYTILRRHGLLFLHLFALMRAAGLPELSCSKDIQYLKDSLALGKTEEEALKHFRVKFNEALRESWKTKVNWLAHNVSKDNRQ
# Sequence of PI3Kδ (p110δ/p85α) Recombinant Human Protein (P27986 whole entry partner): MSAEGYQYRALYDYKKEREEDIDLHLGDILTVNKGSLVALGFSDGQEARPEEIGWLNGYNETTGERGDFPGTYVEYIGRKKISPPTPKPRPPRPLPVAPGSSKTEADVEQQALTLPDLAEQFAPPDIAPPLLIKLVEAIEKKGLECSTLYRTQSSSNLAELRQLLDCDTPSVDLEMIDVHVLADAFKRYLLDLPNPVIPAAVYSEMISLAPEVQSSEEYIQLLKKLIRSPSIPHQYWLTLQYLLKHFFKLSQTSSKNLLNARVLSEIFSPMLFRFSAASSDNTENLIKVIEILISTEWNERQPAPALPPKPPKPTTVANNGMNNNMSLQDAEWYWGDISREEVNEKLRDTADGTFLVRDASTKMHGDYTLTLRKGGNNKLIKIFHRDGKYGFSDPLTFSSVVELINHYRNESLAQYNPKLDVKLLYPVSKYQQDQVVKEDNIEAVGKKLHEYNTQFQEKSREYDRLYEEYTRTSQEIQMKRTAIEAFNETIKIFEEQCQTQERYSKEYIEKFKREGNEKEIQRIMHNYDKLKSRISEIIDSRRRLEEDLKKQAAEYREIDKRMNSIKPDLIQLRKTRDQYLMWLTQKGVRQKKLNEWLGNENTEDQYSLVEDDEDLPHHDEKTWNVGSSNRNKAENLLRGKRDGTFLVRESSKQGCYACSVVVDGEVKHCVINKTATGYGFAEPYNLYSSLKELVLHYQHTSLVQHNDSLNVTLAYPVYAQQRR
SMILES,"IC50 [1, 4] [nM]","IC50 [2, 5] [nM]",IC50 [3] [nM],IC50 [1] [nM],IC50 [2] [nM]
"Cc1ncc(-c2cn3c(-c4cc(C(O)(CO)C(F)(F)F)ccc4C)cnc3c(N)n2)o1 (single isomer, unassigned) [Example 68, 2-(3-(8-Amino-6-(2-methyloxazol-5-yl)imidazo[1,2-o]pyrazin-3-yl)-4-methylphenyl)-3,3,3-trifluoropropane-1,2-diol]",< 100,< 100,–,–,–
"Cc1ccc(C(O)(C(N)=O)C(F)(F)F)cc1-c1cnc2c(N)nc(C(C)(C)O)cn12 (single isomer, unassigned) [Example 255, 2-(3-(8-Amino-6-(2-hydroxypropan-2-yl)imidazo[1,2-a]pyrazin-3-yl)-4-methylphenyl)-3,3,3-trifluoro-2-hydroxypropanamide trifluoroacetate salt (single enantiomer)]",< 100,< 100,–,–,–
"Cc1ccc(C(O)(C(N)=O)C(F)(F)F)cc1-c1cnc2c(N)nc(C(=O)NC34CCC(O)(CC3)C4)cn12 (single isomer, unassigned) [Example 260, 8-Amino-3-(5-(3-amino-1,1,1-trifluoro-2-hydroxy-3-oxopropan-2-yl)-2-methylphenyl)-N-(4-hydroxybicyclo[2.2.1]heptan-1-yl)imidazo[1,2-a]pyrazine-6-carboxamide trifluoroacetate salt (single enantiomer)]",< 100,100 to 500,–,–,–
"Cc1ccc(C(C)(O)C(F)F)cc1-c1cnc2c(N)nc(-c3c[nH]nc3C)cn12 (stereo not drawn) [Example 47, 2-(3-(8-Amino-6-(3-methyl-1H-pyrazol-4-yl)imidazo[1,2-a]pyrazin-3-yl)-4-methylphenyl)-1,1-difluoropropan-2-ol, 1.2TFA]",< 100,< 100,< 100,–,–
"Cc1ccc(C(O)(CO)C(F)(F)F)cc1-c1cnc2c(N)nc(-c3cnn(C)c3)cn12 (stereo not drawn) [Example 69, 2-(3-(8-Amino-6-(1-methyl-1H-pyrazol-4-yl)imidazo[1,2-a]pyrazin-3-yl)-4-methylphenyl)-3,3,3-trifluoropropane-1,2-diol trifluoroacetate salt]",–,–,–,< 100,< 100
"Cc1ncc(-c2cn3c(-c4cc(C(O)(CO)C(F)(F)F)ccc4C)cnc3c(N)n2)s1 (stereo not drawn) [Example 70, 2-(3-(8-Amino-6-(2-methylthiazol-5-yl)imidazo[1,2-a]pyrazin-3-yl)-4-methylphenyl)-3,3,3-trifluoropropane-1,2-diol trifluoroacetate salt]",–,–,–,< 100,< 100
"Cc1ccc(C(O)(CO)C(F)(F)F)cc1-c1cnc2c(N)nc(-c3cnco3)cn12 (stereo not drawn) [Example 71, 2-(3-(8-Amino-6-(oxazol-5-yl)imidazo[1,2-a]pyrazin-3-yl)-4-methylphenyl)-3,3,3-trifluoropropane-1,2-diol trifluoroacetate salt]",–,–,–,< 100,< 100
